Experimental findings from patent US20260258039A1, “AROMATIC COMPOUND, METHOD FOR PREPARING SAME, AND USE THEREOF IN PREPARATION OF ESTROGEN RECEPTOR DEGRADER” (Hinova Pharmaceuticals Inc., priority 2022, published 2026) are described below.

Where two headings read alike, the source gives them in different places.

The target of one test is T1, ER (Homo sapiens, UniProt P03372).
T1 construct: T47D breast cancer cells were subcultured in cell culture medium; endogenous in cells; host or cells: T47D breast cancer cells
T1 sequence (P03372 1-595): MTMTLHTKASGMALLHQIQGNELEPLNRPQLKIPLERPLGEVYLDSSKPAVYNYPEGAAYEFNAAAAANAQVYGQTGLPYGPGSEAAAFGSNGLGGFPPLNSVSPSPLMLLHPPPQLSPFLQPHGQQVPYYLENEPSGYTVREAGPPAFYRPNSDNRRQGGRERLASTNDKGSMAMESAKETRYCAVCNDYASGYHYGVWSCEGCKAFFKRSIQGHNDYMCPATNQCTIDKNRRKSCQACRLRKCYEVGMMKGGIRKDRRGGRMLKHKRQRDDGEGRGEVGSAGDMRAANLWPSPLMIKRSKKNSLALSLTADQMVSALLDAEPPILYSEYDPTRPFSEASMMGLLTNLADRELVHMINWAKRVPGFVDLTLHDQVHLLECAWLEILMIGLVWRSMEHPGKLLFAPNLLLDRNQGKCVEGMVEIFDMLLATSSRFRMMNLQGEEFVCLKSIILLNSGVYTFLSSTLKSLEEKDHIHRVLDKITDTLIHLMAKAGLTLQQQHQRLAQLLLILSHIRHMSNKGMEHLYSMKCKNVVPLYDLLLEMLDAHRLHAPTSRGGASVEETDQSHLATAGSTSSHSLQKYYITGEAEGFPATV
The test can be described thus: Degradation activities on ER (ELISA) in T47D breast cancer cells. Format: cell-based. To be noted: T47D cells, 24 h, ELISA; for DC50: concentration required to degrade 50% of the target protein; for Dmax: maximum percentage of target protein degraded. The protocol: T47D breast cancer cells were subcultured in cell culture medium, and then the cells in good growth condition were seeded into 96-well plates at 80 µL/well, with 2.5×10^4 cells per well. The cells were incubated in a 37° C., 5% CO2 incubator for 3 days. The drug was prepared into a 10 mM stock solution with dimethyl sulfoxide (DMSO). Prior to use, the stock solution was diluted with cell culture medium to obtain six final concentrations (100 nM, 25 nM, 6.25 nM, 1.56 nM, 0.39 nM, and […]), and gently mixed. Additionally, negative control wells (only containing culture medium) and positive control wells (only containing cells and DMSO) were included. After the cells were incubated in the incubator for 24 h, the cells were rinsed once with ice-cold 1×PBS. […] The plate was sealed with plastic film, and incubated in a 37° C. incubator for 2 h. The film was removed. 200 μL of 1× washing buffer was added to each well, and then the plate was shaken for 5 min. The washing buffer was discarded, and the plate was pat-dried. The plate was washed four times. 100 μL of freshly prepared detection antibody (green) was added to each well of the ELISA plate. The plate was sealed with plastic film, and then incubated in a 37° C. incubator for 1 h. The film was removed, and the detection antibody was discarded. The plate was pat-dried. 200 μL of 1× washing buffer was added to each well, and then the plate was shaken for 5 min. The washing buffer was discarded, and the plate was pat-dried. The plate was washed four times. 100 μL of freshly prepared HRP-labeled secondary antibody (red) was added to each well of the ELISA plate. The plate was sealed with plastic film, and incubated in a 37° C. incubator for 30 min. The film was removed, the secondary antibody was discarded, and the plate was pat-dried, followed by adding 200 μL of 1× washing buffer to each well. The plate was shaken for 5 min, and the washing buffer was discarded before pat-drying the plate. The plate was washed four times. 100 μl of TMB substrate was added to each well of the ELISA plate, followed by incubating in a 37° C. incubator for 5 min. 100 μL of STOP solution was added to each well of the ELISA plate, and the plate was gently shaken for a few seconds. The bottom of each well was wiped with lint-free cloth. Within 30 min after adding the STOP solution, the absorbance was read at 450 nm. […] The data were analyzed using the Dose-response equation in GraphPad Prism8 software to obtain the DC50 and Dmax values, and both of them are important indicators for measuring the degradation activities of compounds on target proteins. […] The Dmax value represents the maximum percentage of target protein that can be degraded by the compound.
In general terms: In an ELISA, binding on a coated surface is turned into a signal by an enzyme label.

Test [1] has as its system MCF-7 breast cancer cells. The test can be described thus: Inhibition of proliferation of MCF-7 breast cancer cells (agarose culture, CellTiter-Glo 3D). As to conditions: MCF-7 cells, 15 days of cultivation, read-out: IC50. Format: cell-based. The protocol: After 1.6% agarose and 0.7% agarose were sterilized at high temperature, they were cooled to around 50° C., and placed in a 42° C. water bath for later use. MCF-7 breast cancer cells were subcultured in complete cell culture medium, and cells in good growth condition were digested and counted for future use. 50 µL of 1.6% agarose mixed with 2× culture medium at a ratio of 1:1 was spread into the bottom of 96-well plate, and allowed to cool and solidify. 0.7% agarose was mixed with diluted cell suspension in a ratio of 1:1, and then 50 µL of the mixture of gel and cells was added to each well, with 2000 cells for each well; the mixture was allowed to cool and solidify at room temperature. 50 μL of culture medium was added to the plate containing cells, and the plate was placed in a 37° C., 5% CO2 incubator and cultured for 24 h. The drug was prepared into 10 mM stock solution with dimethyl sulfoxide (DMSO). The stock solution was diluted in a ratio of 1:3, to obtain 9 concentration gradients. Then, each concentration of compound solution was further diluted with culture medium in 1:250 (to ensure a DMSO concentration of 0.1% in the culture system). Two replicate wells was set for each concentration. 50 μL of the diluted compound solution was added to the cell culture wells (with final concentrations of 10 μM, 3.3 μM, 1.1 μM, 0.37 μM . . . ). The plate was gently shaken for mixing. Additionally, 3 negative control wells only containing cells and 3 blank control wells only containing culture medium were set up (each of the 6 wells was added with 50 μL of DMSO diluted with culture medium in a ration of 1:250). After 15 days of cultivation, the cell plates and CellTiter-Glo 3D Cell Viability were taken out and equilibrated to room temperature in advance. 80 μL of culture medium were aspirated and discarded from the cell plate, and 120 µL of CellTiter-Glo 3D Cell Viability solution was added to each well. The plates were centrifuged at 1200 rpm/min for 5 min, and then placed in the dark and kept for 25 min. The […] were measured using a multi-function microplate reader. The data were analyzed using the Dose-response-inhibition equation in GraphPad Prism8 software, and the IC50 values were obtained, as shown in Table 3.
For orientation: Cellular ATP, detected with luciferase, serves as a proxy for viable cell number.

Consider `O=C1CCC(N2Cc3cc(N4CC5(CCN(CC6CCN(c7ccc([C@H]8c9ccc(O)cc9OC[C@H]8c8ccccc8F)cc7F)CC6)CC5)C4)ccc3C2=O)C(=O)N1` (relative stereo) [Example 87, 3-(5-(7-((1-(2-fluoro-4-(cis-3-(2-fluorophenyl)-7-hydroxybenzopyran-4-yl)phenyl)piperidin-4-yl)methyl)-2,7-diazaspiro[3.5]nonane-2-yl)-1-oxoisoinodolin-2-yl)piperidin-2,6-dione], for which, on ER, the DC50 (usually the midpoint of the concentration-degradation curve) was below 0.01 µM and the Dmax – broadly, the greatest extent of degradation seen – is reported as “B (B: 75-50%)”. Also, in test [1], the IC50 (commonly the concentration at which inhibition is half-maximal) was below 0.01 µM.

Turning to `O=C1CCC(NC(=O)c2ccc(N3CC4(CCN(CC5CCN(c6ccc([C@@H]7c8ccc(O)cc8OC[C@@H]7c7ccccc7F)cc6)CC5)CC4)C3)cc2F)C(=O)N1` (relative stereo) [Example 103, N-(2,6-dioxopiperidin-3-yl)-2-fluoro-4-(7-((1-(4-(cis-3-(2-fluorophenyl)-7-hydroxychroman-4-yl)phenyl)piperidin-4-yl)methyl)-2,7-diazaspiro[3.5]nonane-2-yl)benzamide], the IC50 in test [1] (Homo sapiens, MCF7, 360 h) was above 0.05 µM.

Consider `O=C1CCC(N2Cc3cc(N4CC5(CCN(CC6CCN(c7ccc([C@@H]8c9ccc(O)cc9OC[C@@H]8c8ccc(F)cc8)cc7)CC6)CC5)C4)ccc3C2=O)C(=O)N1` (stereo partly drawn) [Example 9, 3-(5-(7-((1-(4-(cis-3-(4-fluorophenyl)-7-hydroxyltryptophane-4-yl)phenyl)piperidin-4-yl)methyl)-2,7-diazaspiro[3.5]nonane-2-yl)-1-oxoisoinodolin-2-yl)piperidin-2,6-dione], for which the DC50 on ER was below 0.01 µM. The Dmax on ER (read-out: Dmax) fell in the range of 50 to 75%. For the same compound, the IC50 in test [1] (Homo sapiens, MCF7, 360 h) fell in the range of 0.011 to 0.05 µM.

On to `O=C1CCC(N2Cc3cc(N4CCC(N5CC6(CCN(c7ccc([C@@H]8c9ccc(O)cc9OC[C@@H]8c8ccccc8F)cc7)CC6)C5)CC4)ccc3C2=O)C(=O)N1` (stereo partly drawn) [Example 14, 3-(5-(4-(7-(4-((3S, 4R)-3-(2-fluorophenyl)-7-hydroxychroman-4-yl)phenyl)-2,7-diazaspiro[3.5]nonane-2-yl)piperidin-1-yl)-1-oxoisoinodolin-2-yl)pyridine-2,6-dione], for which the DC50 at ER is below 0.01 µM. Moreover, the Dmax on ER (read-out: Dmax) is above 75%. The IC50 in test [1] (Homo sapiens, MCF7, 360 h) was below 0.01 µM.

In turn, `O=C1CCC(N2Cc3cc(N4CC5(CCN(CC6CCN(c7ccc([C@@H]8c9ccc(O)cc9OC[C@@H]8c8cccc(F)c8F)cc7F)CC6)CC5)C4)ccc3C2=O)C(=O)N1` (stereo partly drawn) [Example 16, 3-(5-(7-((1-(4-((3S, 4R)-3-(2,3-difluorophenyl)-7-hydroxychroman-4-yl)-2-fluorophenyl)piperidin-4-yl)methyl)-2,7-diazaspiro[3.5]nonane-2-yl)-1-oxoisoinodolin-2-yl)piperidin-2,6-dione] had a DC50 at ER below 0.01 µM. In addition, the Dmax on ER (read-out: Dmax) is 50 to 75%. Moreover, the IC50 in test [1] (Homo sapiens, MCF7, 360 h) was below 0.01 µM.

On ER, `CC(C)C[C@H]1COc2cc(O)ccc2[C@H]1c1cc(F)c(N2CCC(CN3CCC4(CC3)CN(c3ccc5c(c3)CN(C3CCC(=O)NC3=O)C5=O)C4)CC2)c(F)c1` (stereo partly drawn) [Example 17, 3-(5-(7-((1-(2,6-difluoro-4-(cis-7-hydroxyl-3-isobutylchroman-4-yl)phenyl)piperidin-4-yl)methyl)-2,7-diazaspiro[3.5]nonane-2-yl)-1-oxoisoinodolin-2-yl)piperidin-2,6-dione] registered a DC50 below 0.01 µM. Besides, the Dmax on ER (read-out: Dmax) was in the range of 50 to 75%. Further, the IC50 in test [1] (Homo sapiens, MCF7, 360 h) lay within 0.011 to 0.05 µM.

As for `O=C1CCC(N2Cc3cc(N4CC5(CCN(CC6CCN(c7ccc(C8=C(c9c(F)cccc9F)COc9cc(O)ccc98)cc7)CC6)CC5)C4)ccc3C2=O)C(=O)N1` (centres unmarked) [Example 18, 3-(5-(7-((1-(4-(3-(2,6-difluorophenyl)-7-hydroxyl-2H-chromene-4-yl)phenyl)piperidin-4-yl)methyl)-2,7-diazaspiro[3.5]nonane-2-yl)-1-oxoisoinodolin-2-yl)piperidin-2,6-dione], on ER, the DC50 was below 0.01 µM and the Dmax result is listed as “A (A: >75%)”. In test [1], the IC50 was below 0.01 µM.

With `O=C1CC[C@H](N2Cc3cc(N4CC5(CCN(CC6CCN(c7ccc([C@@H]8c9ccc(O)cc9OC[C@@H]8c8c(F)cccc8F)cc7)CC6)CC5)C4)ccc3C2=O)C(=O)N1` [Example 78, (S)-3-(6-(7-((1-(4-((3S,4R)-3-(2,6-difluorophenyl)-7-hydroxychroman-4-yl)phenyl)piperidin-4-yl)methyl)-2,7-diazaspiro[3.5]nonane-2-yl)-1-oxoisoinodolin-2-yl)piperidin-2,6-dione], the IC50 in test [1] (Homo sapiens, MCF7, 360 h) was below 0.01 µM.

For the compound `[2H]C1(N2Cc3cc(N4CC5(CCN(CC6CCN(c7ccc([C@@H]8c9ccc(O)cc9OC[C@@H]8c8c(F)cccc8F)cc7F)CC6)CC5)C4)ccc3C2=O)CCC(=O)NC1=O` (stereo partly drawn) [Example 93, 3-deutero-3-(5-(7-((1-(4-((3S,4R)-3-(2,6-difluorophenyl)-7-hydroxychroman-4-yl)-2-fluorophenyl)piperidin-4-yl)methyl)-2,7-diazaspiro[3.5]nonane-2-yl)-1-oxoisoinodolin-2-yl)piperidin-2,6-dione], the IC50 in test [1] (Homo sapiens, MCF7, 360 h) fell in the range of 0.011 to 0.05 µM.

Regarding `O=C1CCC(N2Cc3cc(N4CC5(CCN(CC6CCN(c7ccc([C@@H]8c9ccc(B(O)O)cc9OC[C@@H]8c8ccccc8F)cc7)CC6)CC5)C4)ccc3C2=O)C(=O)N1` (stereo partly drawn) [Example 101, (cis-4-(4-(4-((2-(2-(2,6-dioxopiperidin-3-yl)-1-oxoisoinodolin-5-yl)-2,7-diazaspiro[3.5]nonan-7-yl)methyl)piperidin-1-yl)phenyl)-3-(2-fluorophenyl)pyran-7-yl)boric acid], in test [1] (Homo sapiens, MCF7, 360 h), the IC50 fell in the range of 0.011 to 0.05 µM.

Turning to `O=C1CCC(N2Cc3cc(N4CC5(CCN(CC6CCN(c7ccc([C@@H]8c9ccc(C(=O)O)cc9OC[C@@H]8c8ccccc8F)cc7)CC6)CC5)C4)ccc3C2=O)C(=O)N1` (stereo partly drawn) [Example 102, cis-4-(4-(4-((2-(2-(2,6-dioxopiperidin-3-yl)-1-oxoisoinodolin-5-yl)-2,7-diazaspiro[3.5]nonan-7-yl)methyl)piperidin-1-yl)phenyl)-3-(2-fluorophenyl)chroman-7-formic acid], the IC50 in test [1] (Homo sapiens, MCF7, 360 h) is above 0.05 µM.
